Laboratory results published in PubChem BioAssay AID2060892 (Molecular Pharmacology Branch, DTP, NCI, 2025).
pIC50: −log10 of the molar value.

System: HOP-62 complex spheroids with HUVEC/MSC, viability
Test: Anticancer human tumor HOP-62 cell line growth inhibition [RAS];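 further: spheroids exposed to agents for seven days before readout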;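 on viability, T/C: 100% = DMSO vehicle control viability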
Details: for pIC50: curve of first compound; for viability, T/C: stronger effect = lower value
Method in brief: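 Tumour cells grown as complex spheroids with HUVEC endothelial cells and mesenchymal stem cells, treated with RAS pathway inhibitor combinations. Each agent spans half-log steps from near clinical Cmax, or 10 microM where Cmax is unknown.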

[1] = second compound 0.000949 µM, first compound 0.0316 µM
[2] = second compound 0.000949 µM, first compound 0.1 µM
[3] = second compound 0.000949 µM, first compound 0.316 µM
[4] = second compound 0.000949 µM, first compound 1 µM
[5] = second compound 0.003 µM, first compound 0.0316 µM
[6] = second compound 0.003 µM, first compound 0.1 µM
[7] = second compound 0.003 µM, first compound 0.316 µM
[8] = second compound 0.003 µM, first compound 1 µM
[9] = second compound 0.00949 µM, first compound 0.0316 µM
[10] = second compound 0.00949 µM, first compound 0.1 µM
[11] = second compound 0.00949 µM, first compound 0.316 µM
[12] = second compound 0.00949 µM, first compound 1 µM
[13] = second compound 0.03 µM, first compound 0.0316 µM
[14] = second compound 0.03 µM, first compound 0.1 µM
[15] = second compound 0.03 µM, first compound 0.316 µM
[16] = second compound 0.03 µM, first compound 1 µM
[17] = second compound 0.0949 µM, first compound 0.0316 µM
[18] = second compound 0.0949 µM, first compound 0.1 µM
[19] = second compound 0.0949 µM, first compound 0.316 µM
[20] = second compound 0.0949 µM, first compound 1 µM
[21] = second compound 0.3 µM, first compound 0.0316 µM
[22] = second compound 0.3 µM, first compound 0.1 µM
[23] = second compound 0.3 µM, first compound 0.316 µM
[24] = second compound 0.3 µM, first compound 1 µM

**Q.** With `CC(=O)OC12COC1CC(O)C1(C)C(=O)C(O)C3=C(C)C(OC(=O)C(O)C(NC(=O)OC(C)(C)C)c4ccccc4)CC(O)(C(OC(=O)c4ccccc4)C21)C3(C)C` (centres undefined) + CCn1c(-c2cc(N3CCN(C)CC3)cnc2C(C)OC)c2c3cc(ccc31)-c1csc(n1)CC(NC(=O)C1CC1C)C(=O)N1CCCC(N1)C(=O)OCC(C)(C)C2 as the compound, how does the pIC50 (second compound 0.000949 µM) read?
**A.** > 7.50

**Q.** And the pIC50 (second compound 0.003 µM)?
**A.** > 7.50

**Q.** What about the pIC50 (second compound 0.00949 µM) of the same compound?
**A.** > 7.50

**Q.** And the pIC50 (second compound 0.03 µM)?
**A.** > 7.50

**Q.** And the pIC50 (second compound 0.0949 µM)?
**A.** > 7.50

**Q.** And the pIC50 (second compound 0.3 µM)?
**A.** > 7.50

**Q.** And the viability, T/C [1]?
**A.** 41.1%

**Q.** And the viability, T/C [2]?
**A.** 34.9%

**Q.** What about the viability, T/C [3] of the same compound?
**A.** 28.9%

**Q.** And the viability, T/C [4]?
**A.** 43.6%

**Q.** And the viability, T/C (second compound 0.000949 µM, first compound 3.16 µM)?
**A.** 42.7%

**Q.** And the viability, T/C (second compound 0.000949 µM, first compound 10 µM)?
**A.** 42.6%

**Q.** And the viability, T/C [5]?
**A.** 44.1%

**Q.** What about the viability, T/C [6] of the same compound?
**A.** 38.5%

**Q.** What about the viability, T/C [7] of the same compound?
**A.** 33.4%

**Q.** What about the viability, T/C [8] of the same compound?
**A.** 30.6%

**Q.** And the viability, T/C (second compound 0.003 µM, first compound 3.16 µM)?
**A.** 36.6%

**Q.** And the viability, T/C (second compound 0.003 µM, first compound 10 µM)?
**A.** 35%

**Q.** What about the viability, T/C [9] of the same compound?
**A.** 42.4%

**Q.** And the viability, T/C [10]?
**A.** 28.5%

**Q.** What about the viability, T/C [11] of the same compound?
**A.** 31.5%

**Q.** What about the viability, T/C [12] of the same compound?
**A.** 37%

**Q.** What about the viability, T/C (second compound 0.00949 µM, first compound 3.16 µM) of the same compound?
**A.** 35.9%

**Q.** What about the viability, T/C (second compound 0.00949 µM, first compound 10 µM) of the same compound?
**A.** 33.4%

**Q.** What about the viability, T/C [13] of the same compound?
**A.** 44.1%

**Q.** What about the viability, T/C [14] of the same compound?
**A.** 35.1%

**Q.** And the viability, T/C [15]?
**A.** 31.1%

**Q.** And the viability, T/C [16]?
**A.** 30.8%

**Q.** And the viability, T/C (second compound 0.03 µM, first compound 3.16 µM)?
**A.** 30.4%

**Q.** What about the viability, T/C (second compound 0.03 µM, first compound 10 µM) of the same compound?
**A.** 40.1%

**Q.** What about the viability, T/C [17] of the same compound?
**A.** 32.3%

**Q.** What about the viability, T/C [18] of the same compound?
**A.** 33.6%

**Q.** What about the viability, T/C [19] of the same compound?
**A.** 31.5%

**Q.** And the viability, T/C [20]?
**A.** 32.9%

**Q.** What about the viability, T/C (second compound 0.0949 µM, first compound 3.16 µM) of the same compound?
**A.** 33.6%

**Q.** And the viability, T/C (second compound 0.0949 µM, first compound 10 µM)?
**A.** 32.6%

**Q.** And the viability, T/C [21]?
**A.** 37%

**Q.** And the viability, T/C [22]?
**A.** 30.9%

**Q.** What about the viability, T/C [23] of the same compound?
**A.** 39%

**Q.** And the viability, T/C [24]?
**A.** 31.7%

**Q.** What about the viability, T/C (second compound 0.3 µM, first compound 3.16 µM) of the same compound?
**A.** 27.9%

**Q.** What about the viability, T/C (second compound 0.3 µM, first compound 10 µM) of the same compound?
**A.** 35.6%

**Q.** With `Nc1ccn(C2OC(CO)C(O)C2(F)F)c(=O)n1` (centres undefined) + CCn1c(-c2cc(N3CCN(C)CC3)cnc2C(C)OC)c2c3cc(ccc31)-c1csc(n1)CC(NC(=O)C1CC1C)C(=O)N1CCCC(N1)C(=O)OCC(C)(C)C2 as the compound, how does the pIC50 (second compound 0.000949 µM) read?
**A.** 7.80

**Q.** And the pIC50 (second compound 0.003 µM)?
**A.** 7.89

**Q.** What about the pIC50 (second compound 0.00949 µM) of the same compound?
**A.** 7.92

**Q.** And the pIC50 (second compound 0.03 µM)?
**A.** 7.97

**Q.** What about the pIC50 (second compound 0.0949 µM) of the same compound?
**A.** > 8.50

**Q.** And the pIC50 (second compound 0.3 µM)?
**A.** > 8.50

**Q.** And the viability, T/C (second compound 0.000949 µM, first compound 0.00316 µM)?
**A.** 121%

**Q.** What about the viability, T/C (second compound 0.000949 µM, first compound 0.01 µM) of the same compound?
**A.** 71.2%

**Q.** And the viability, T/C [1]?
**A.** 16.9%

**Q.** What about the viability, T/C [2] of the same compound?
**A.** 12.5%

**Q.** And the viability, T/C [3]?
**A.** 9.82%

**Q.** What about the viability, T/C [4] of the same compound?
**A.** 5.86%

**Q.** What about the viability, T/C (second compound 0.003 µM, first compound 0.00316 µM) of the same compound?
**A.** 93.9%

**Q.** What about the viability, T/C (second compound 0.003 µM, first compound 0.01 µM) of the same compound?
**A.** 56%

**Q.** What about the viability, T/C [5] of the same compound?
**A.** 29.5%

**Q.** What about the viability, T/C [6] of the same compound?
**A.** 19.4%

**Q.** What about the viability, T/C [7] of the same compound?
**A.** 14.9%

**Q.** And the viability, T/C [8]?
**A.** 8.45%

**Q.** And the viability, T/C (second compound 0.00949 µM, first compound 0.00316 µM)?
**A.** 68.1%

**Q.** And the viability, T/C (second compound 0.00949 µM, first compound 0.01 µM)?
**A.** 52.5%

**Q.** What about the viability, T/C [9] of the same compound?
**A.** 36.2%

**Q.** And the viability, T/C [10]?
**A.** 26.6%

**Q.** What about the viability, T/C [11] of the same compound?
**A.** 17.5%

**Q.** What about the viability, T/C [12] of the same compound?
**A.** 17.3%

**Q.** And the viability, T/C (second compound 0.03 µM, first compound 0.00316 µM)?
**A.** 60.4%

**Q.** What about the viability, T/C (second compound 0.03 µM, first compound 0.01 µM) of the same compound?
**A.** 49.2%

**Q.** And the viability, T/C [13]?
**A.** 40.3%

**Q.** What about the viability, T/C [14] of the same compound?
**A.** 31%

**Q.** And the viability, T/C [15]?
**A.** 20.8%

**Q.** What about the viability, T/C [16] of the same compound?
**A.** 25.1%

**Q.** What about the viability, T/C (second compound 0.0949 µM, first compound 0.00316 µM) of the same compound?
**A.** 45.6%

**Q.** And the viability, T/C (second compound 0.0949 µM, first compound 0.01 µM)?
**A.** 38.4%

**Q.** What about the viability, T/C [17] of the same compound?
**A.** 35.6%

**Q.** What about the viability, T/C [18] of the same compound?
**A.** 28.9%

**Q.** And the viability, T/C [19]?
**A.** 23.9%

**Q.** What about the viability, T/C [20] of the same compound?
**A.** 27.4%

**Q.** And the viability, T/C (second compound 0.3 µM, first compound 0.00316 µM)?
**A.** 43.5%

**Q.** And the viability, T/C (second compound 0.3 µM, first compound 0.01 µM)?
**A.** 38.8%

**Q.** What about the viability, T/C [21] of the same compound?
**A.** 39.7%

**Q.** What about the viability, T/C [22] of the same compound?
**A.** 25.9%

**Q.** And the viability, T/C [23]?
**A.** 25.9%

**Q.** And the viability, T/C [24]?
**A.** 31.7%
